In paper PMC7549094 (Journal of Medicinal Chemistry, 2020):
pEC50: −log10 of the molar value.

Key:
[1] = test system: intramacrophage L. donovani amastigotes; assay: L. donovani amastigote proliferation within primary mouse macrophages; assay type: cell-based; settings: Leishmania donovani, Macrophage
L. donovani = assay: murine model of visceral leishmaniasis, liver parasite burden by qPCR; assay type: in vivo; settings: mice infected with L. donovani; 1 mg/kg b.i.d. PO, 8 days
Description: Formulation of study drugs for in vivo efficacy experiments. LXE408 administered to mice during efficacy experiments was formulated as a suspension in distilled water containing 0.5% methylcellulose and 0.5% Tween-80 (mouse model of visceral leishmaniasis) or hydroxypropylcellulose and Tween-80 (mouse models of cutaneous leishmaniasis). Miltefosine was formulated as a solution in distilled water containing 0.5% methylcellulose and 0.5% Tween-80.
Mouse model of visceral leishmaniasis. Female BALB/c mice (6-8 weeks old) were infected by tail vein injection with 4x 107 L. donovani MHOM/ET/67/HU3 splenic amastigotes. Seven days after infection, animals were orally dosed for 8 days with vehicle (0.5% MC/0.5% Tween-80 in distilled water), miltefosine (12 mg/kg once-daily), or LXE408 (twice-daily). At the end of treatment, liver samples were collected and L. donovani parasite burdens were quantified by qPCR as follows. L. donovani genomic DNA was extracted from drug-treated mice livers using the DNeasy Blood and Tissue Kit (Qiagen). Two types of DNA were quantified in parallel using the TaqMan assays for L. donovani major surface

L. major = assay: BALB/c mouse lesion cure model of Old World cutaneous leishmaniasis; assay type: in vivo; settings: BALB/c mice infected with L. major; 20 mg/kg b.i.d. PO, 10 days
Description: Data in the graph show progression of lesion sizes at the base of the tail of BALB/c mice infected with 1 × 10^7L. major parasites after 10 days of treatment. Experimental time points represent the mean lesion sizes ± SEM (n = 6). Single-factor ANOVA (Dunnet’s test) was used to determine the statistical significance of differences in lesion sizes between vehicle and compound-treated groups (P < 0.05).
Lesion cure model of Old World leishmaniasis (L. major). Female BALB/c mice (6 weeks old) were
used in this model. Mice were infected intradermally at base of the tail with 100 µl parasite culture
containing 1x107 L. major MHOM/IR/-/173 stationary phase promastigotes. Starting from the third week
post-infection, the lesion induration diameters (length=D1 and width=D2) were measured using a caliper
instrument (Fisher Scientific, USA) with 0.1 mm sensitivity. Length and width measurements were taken to account for asymmetrical lesions. Lesion size area was then calculated using the πR1*R2 formula
(where R1=D1/2 and R2 = D2/2). Lesions were measured at a 10 -day (+/- 2 days) interval until the end
of the study. Experimental endpoint is lesion cure or % lesion size re duction relative to lesion size in
vehicle-treated group. Lesion cure is considered 100% re-epithelialization of the lesion (lesion size = 0
10 mg/kg and 20 mg/kg twice-daily). In a positive control treatment group, animals were dosed by […]

hr Alpha2C = target: T1, hr Alpha2C (Homo sapiens, UniProt P18825); assay: receptor profile (Table S4); assay type: binding
T1 sequence (P18825 1-462): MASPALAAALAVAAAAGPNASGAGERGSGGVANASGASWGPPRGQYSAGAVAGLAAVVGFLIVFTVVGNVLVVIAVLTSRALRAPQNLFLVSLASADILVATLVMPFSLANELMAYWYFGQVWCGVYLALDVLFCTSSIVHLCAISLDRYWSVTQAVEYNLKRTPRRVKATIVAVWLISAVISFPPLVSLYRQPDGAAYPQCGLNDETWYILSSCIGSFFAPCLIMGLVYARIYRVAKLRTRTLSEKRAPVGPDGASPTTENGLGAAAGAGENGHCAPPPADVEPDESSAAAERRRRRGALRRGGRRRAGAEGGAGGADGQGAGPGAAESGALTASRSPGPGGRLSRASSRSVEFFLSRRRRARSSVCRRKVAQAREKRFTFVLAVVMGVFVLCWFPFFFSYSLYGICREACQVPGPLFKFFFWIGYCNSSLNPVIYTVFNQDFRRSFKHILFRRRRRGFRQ

hr CB1 antag = hr CB1 antag (Homo sapiens, UniProt P21554); assay: receptor profile (Table S4); assay type: biochemical
Sequence of hr CB1 antag (P21554 whole entry): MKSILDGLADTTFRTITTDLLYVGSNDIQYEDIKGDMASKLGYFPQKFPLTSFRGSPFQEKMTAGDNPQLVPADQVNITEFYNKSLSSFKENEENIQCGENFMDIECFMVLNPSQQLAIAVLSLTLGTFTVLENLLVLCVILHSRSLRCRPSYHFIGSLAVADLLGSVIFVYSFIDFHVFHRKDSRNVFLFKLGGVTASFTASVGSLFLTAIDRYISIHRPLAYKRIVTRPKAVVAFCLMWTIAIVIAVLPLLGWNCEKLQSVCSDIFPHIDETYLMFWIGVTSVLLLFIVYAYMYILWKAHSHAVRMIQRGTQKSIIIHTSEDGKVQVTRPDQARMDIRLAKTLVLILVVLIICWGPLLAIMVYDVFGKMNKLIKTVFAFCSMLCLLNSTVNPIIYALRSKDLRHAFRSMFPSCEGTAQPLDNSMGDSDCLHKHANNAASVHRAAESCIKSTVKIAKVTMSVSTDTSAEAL

hr ETa = target: T2, hr ETa (Homo sapiens, UniProt P25101); assay: receptor profile (Table S4); assay type: binding
T2 sequence (P25101 21-427): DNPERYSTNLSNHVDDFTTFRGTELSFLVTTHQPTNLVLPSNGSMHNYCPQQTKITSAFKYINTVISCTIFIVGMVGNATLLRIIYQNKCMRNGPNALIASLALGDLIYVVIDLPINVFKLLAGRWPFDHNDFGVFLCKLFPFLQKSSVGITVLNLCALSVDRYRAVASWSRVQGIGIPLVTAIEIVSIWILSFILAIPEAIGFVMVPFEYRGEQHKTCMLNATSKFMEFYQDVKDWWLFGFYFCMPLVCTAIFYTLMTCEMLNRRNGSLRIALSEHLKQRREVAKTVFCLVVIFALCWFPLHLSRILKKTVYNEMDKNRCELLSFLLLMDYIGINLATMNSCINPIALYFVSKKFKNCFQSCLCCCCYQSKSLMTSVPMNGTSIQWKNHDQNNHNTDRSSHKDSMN

hr GHS = hr GHS (Homo sapiens, UniProt Q92847); assay: receptor profile (Table S4); assay type: binding
Sequence of hr GHS (Q92847 whole entry): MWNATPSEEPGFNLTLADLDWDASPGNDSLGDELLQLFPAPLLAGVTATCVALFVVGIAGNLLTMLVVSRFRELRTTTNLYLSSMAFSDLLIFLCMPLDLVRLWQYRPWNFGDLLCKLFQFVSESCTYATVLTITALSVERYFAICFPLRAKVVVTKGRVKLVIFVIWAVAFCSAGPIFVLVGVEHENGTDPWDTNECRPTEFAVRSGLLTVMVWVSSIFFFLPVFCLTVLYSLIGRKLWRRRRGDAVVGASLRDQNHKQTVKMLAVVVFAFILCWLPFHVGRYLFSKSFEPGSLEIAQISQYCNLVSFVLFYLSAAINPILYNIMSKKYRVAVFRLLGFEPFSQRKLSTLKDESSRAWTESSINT

hr 5-HT1A antag = target: T3, hr 5-HT1A antag (Homo sapiens, UniProt P08908); assay: receptor profile (Table S4); assay type: biochemical
T3 sequence (P08908 1-422): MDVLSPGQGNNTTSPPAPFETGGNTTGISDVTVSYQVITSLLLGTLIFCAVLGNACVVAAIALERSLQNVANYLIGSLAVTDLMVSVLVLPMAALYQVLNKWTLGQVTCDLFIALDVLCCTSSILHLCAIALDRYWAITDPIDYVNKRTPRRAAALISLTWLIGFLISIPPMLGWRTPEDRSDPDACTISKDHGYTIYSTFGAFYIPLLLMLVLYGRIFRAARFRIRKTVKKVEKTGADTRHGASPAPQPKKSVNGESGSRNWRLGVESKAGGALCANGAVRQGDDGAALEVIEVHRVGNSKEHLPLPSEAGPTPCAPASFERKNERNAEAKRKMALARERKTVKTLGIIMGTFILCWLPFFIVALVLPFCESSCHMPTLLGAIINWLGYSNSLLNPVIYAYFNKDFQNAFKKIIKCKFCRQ

hr ERa antag = hr ERa antag (Homo sapiens, UniProt P03372); assay: receptor profile (Table S4); assay type: biochemical
Sequence of hr ERa antag (P03372 whole entry): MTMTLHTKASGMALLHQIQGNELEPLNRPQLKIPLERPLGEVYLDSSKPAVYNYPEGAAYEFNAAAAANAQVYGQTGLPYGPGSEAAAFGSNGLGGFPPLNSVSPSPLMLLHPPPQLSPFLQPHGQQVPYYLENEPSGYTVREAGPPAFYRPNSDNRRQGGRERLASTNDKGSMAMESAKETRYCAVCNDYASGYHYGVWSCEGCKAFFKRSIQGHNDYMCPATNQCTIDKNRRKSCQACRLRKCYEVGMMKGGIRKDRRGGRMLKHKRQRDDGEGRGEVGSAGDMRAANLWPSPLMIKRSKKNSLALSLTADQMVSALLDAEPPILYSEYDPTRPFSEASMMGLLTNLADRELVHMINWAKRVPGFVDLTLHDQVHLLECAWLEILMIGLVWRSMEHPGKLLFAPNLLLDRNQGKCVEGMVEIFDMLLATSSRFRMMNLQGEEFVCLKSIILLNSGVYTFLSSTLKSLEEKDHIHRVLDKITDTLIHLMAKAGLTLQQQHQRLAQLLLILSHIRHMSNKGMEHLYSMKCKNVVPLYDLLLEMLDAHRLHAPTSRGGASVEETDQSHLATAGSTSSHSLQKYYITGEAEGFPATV

hr MC3 = hr MC3 (Homo sapiens, UniProt P41968); assay: receptor profile (Table S4); assay type: binding
Sequence of hr MC3 (P41968 whole entry): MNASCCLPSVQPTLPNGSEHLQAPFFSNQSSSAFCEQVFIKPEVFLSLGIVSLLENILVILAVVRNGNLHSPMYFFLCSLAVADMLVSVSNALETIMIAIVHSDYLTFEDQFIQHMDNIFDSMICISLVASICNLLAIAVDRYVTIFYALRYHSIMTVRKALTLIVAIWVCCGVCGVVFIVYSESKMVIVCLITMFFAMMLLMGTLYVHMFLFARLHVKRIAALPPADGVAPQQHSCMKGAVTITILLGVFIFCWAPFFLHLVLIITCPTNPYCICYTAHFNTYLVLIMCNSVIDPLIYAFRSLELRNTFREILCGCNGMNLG

hr Mot = hr Mot (Homo sapiens, UniProt O43193); assay: receptor profile (Table S4); assay type: binding
Sequence of hr Mot (O43193 whole entry): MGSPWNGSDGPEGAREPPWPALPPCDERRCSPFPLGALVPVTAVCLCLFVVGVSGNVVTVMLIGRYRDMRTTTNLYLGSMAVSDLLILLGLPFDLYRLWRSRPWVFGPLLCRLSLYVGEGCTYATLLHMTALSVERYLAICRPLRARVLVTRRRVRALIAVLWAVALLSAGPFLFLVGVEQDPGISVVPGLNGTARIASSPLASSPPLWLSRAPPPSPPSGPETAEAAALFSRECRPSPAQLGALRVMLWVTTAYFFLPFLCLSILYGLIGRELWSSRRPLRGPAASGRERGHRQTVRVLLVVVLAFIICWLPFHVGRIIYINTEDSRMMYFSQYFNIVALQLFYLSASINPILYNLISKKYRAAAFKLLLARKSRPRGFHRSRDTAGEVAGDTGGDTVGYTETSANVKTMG

hr ERBB2 = hr ERBB2 (Homo sapiens, UniProt P04626); assay: receptor profile (Table S4); assay type: biochemical
Sequence of hr ERBB2 (P04626 23-1255): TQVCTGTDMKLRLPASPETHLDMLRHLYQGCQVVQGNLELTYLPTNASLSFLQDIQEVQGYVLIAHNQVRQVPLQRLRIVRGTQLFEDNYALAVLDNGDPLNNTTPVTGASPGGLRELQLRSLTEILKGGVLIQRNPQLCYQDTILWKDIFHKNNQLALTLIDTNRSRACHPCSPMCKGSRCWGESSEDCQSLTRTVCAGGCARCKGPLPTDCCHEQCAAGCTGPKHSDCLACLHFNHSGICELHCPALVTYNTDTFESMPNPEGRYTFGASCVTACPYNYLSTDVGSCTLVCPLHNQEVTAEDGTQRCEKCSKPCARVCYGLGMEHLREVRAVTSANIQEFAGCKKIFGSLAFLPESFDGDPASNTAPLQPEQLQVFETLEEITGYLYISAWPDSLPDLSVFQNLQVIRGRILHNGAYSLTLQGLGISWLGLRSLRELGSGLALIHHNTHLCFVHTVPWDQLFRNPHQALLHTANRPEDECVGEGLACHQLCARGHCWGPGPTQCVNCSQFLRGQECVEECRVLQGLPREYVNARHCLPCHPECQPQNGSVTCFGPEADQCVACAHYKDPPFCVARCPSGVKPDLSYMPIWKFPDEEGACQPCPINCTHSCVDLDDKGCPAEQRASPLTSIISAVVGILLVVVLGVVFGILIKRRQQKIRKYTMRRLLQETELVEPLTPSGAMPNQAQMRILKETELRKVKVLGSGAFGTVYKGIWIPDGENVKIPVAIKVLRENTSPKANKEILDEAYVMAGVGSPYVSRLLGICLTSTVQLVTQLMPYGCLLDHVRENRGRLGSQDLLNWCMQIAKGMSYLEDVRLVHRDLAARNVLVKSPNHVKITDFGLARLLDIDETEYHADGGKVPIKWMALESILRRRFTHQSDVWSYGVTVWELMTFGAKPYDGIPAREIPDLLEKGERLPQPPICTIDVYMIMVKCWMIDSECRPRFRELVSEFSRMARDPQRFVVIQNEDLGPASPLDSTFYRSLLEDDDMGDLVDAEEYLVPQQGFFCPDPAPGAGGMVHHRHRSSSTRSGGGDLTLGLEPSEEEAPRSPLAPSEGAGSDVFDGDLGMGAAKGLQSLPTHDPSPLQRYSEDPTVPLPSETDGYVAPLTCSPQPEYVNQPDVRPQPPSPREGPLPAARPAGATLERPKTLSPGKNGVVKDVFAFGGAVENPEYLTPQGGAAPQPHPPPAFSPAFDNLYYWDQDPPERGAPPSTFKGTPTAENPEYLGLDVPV

[2] = Balb/C mice, 20 mg/kg PO; dose-normalized
Protocol: In Vivo PK Studies in Mice.
(§1) The solution was filtered using a 0.45 m syringe filter before dosing. Two male Balb/c mice were administered 1 intravenously via the lateral tail
(§2) vein at 5 mg/kg with a dose volume of 2.0 mL/kg. 1 was also formulated in a suspension of 0.5%
(§3) methylcellulose with 0.5% Tween 80 (0.5% MC/0.5% Tw80) in water at 2.5 mg/mL. A group of mice
(§4) (n=3) were administered 1 orally via gavage at 20 mg/kg with a dose volume of 8.0 mL/kg.
(§5) The mouse blood samples were centrifuged to separate plasma and the plasma samples were frozen at -
In Vivo PK Studies in Rats.
Two male Wistar rats were administered
(§6) 1 intravenously via the lateral tail vein at 3 mg/kg with a dose volume of 1.0 mL/kg. 1 was also formulated
(§7) in a suspension of 0.5% methylcellulose with 0.5% Tween 80 (0.5% MC/0.5% Tw80) in water at 2.0
(§8) mg/mL. The second group of rats (n=3) were administered 1 orally via gavage at 10 mg/kg in suspension
(§9) with a dose volume of 5.0 mL/kg. Six blood samples of 100 μL each were collected serially from each
(§10) animal via the saphenous vein up to 24 hours after dosing. The rat blood samples were centrifuged to
(§11) separate plasma and the plasma samples were frozen at -20°C until analysis.
In Vivo PK Studies in Dogs.
(§12) The solution was filtered using a 0.45 m syringe filter before dosing. Three male Beagle dogs were administered 1 intravenously via saphenous
(§13) vein at 0.3 mg/kg with a dose volume of 0.1 mL/kg. 1 was also formulated in a suspension of 0.5%
(§14) methylcellulose with 0.5% Tween 80 (0.5%MC/0.5% Tween 80) in water at 1.0 mg/mL. The second
(§15) group of male dogs (n=2) were administered 1- orally via gavage at 1.0 mg/kg with a dose volume of 1.0
(§16) mL/kg. Seven blood samples of 250 µL each were collected serially from each animal via the jugular vein
(§17) The dog blood samples were centrifuged to separate plasma and the plasma
(§18) samples were frozen at -20 °C until analysis.

in vivo [3] = settings: Balb/c, mouse, plasma
Protocol: In Vivo PK Studies in Mice.
as §1, §2, §3, §4, §5
In Vivo PK Studies in Rats.
Two male Wistar rats were administered
as §6, §7, §8, §9, §10, §11
In Vivo PK Studies in Dogs.
as §12, §13, §14, §15, §16, §17, §18

in vivo [4] = settings: male, dog, plasma
Protocol: In Vivo PK Studies in Mice.
as §1, §2, §3, §4, §5
In Vivo PK Studies in Rats.
Two male Wistar rats were administered
as §6, §7, §8, §9, §10, §11
In Vivo PK Studies in Dogs.
as §12, §13, §14, §15, §16, §17, §18

Nav1.5 = Nav1.5 (Homo sapiens, UniProt Q14524); assay: receptor profile (Table S4); settings: human
hr Nav1.5 = hr Nav1.5 (Homo sapiens, UniProt Q14524); assay: receptor profile (Table S4); settings: hr Nav1.5
hr PXR antag = hr PXR antag (Homo sapiens, UniProt O75469); assay: receptor profile (Table S4); settings: hr PXR antag
Sequence of hr PXR antag (O75469 whole entry): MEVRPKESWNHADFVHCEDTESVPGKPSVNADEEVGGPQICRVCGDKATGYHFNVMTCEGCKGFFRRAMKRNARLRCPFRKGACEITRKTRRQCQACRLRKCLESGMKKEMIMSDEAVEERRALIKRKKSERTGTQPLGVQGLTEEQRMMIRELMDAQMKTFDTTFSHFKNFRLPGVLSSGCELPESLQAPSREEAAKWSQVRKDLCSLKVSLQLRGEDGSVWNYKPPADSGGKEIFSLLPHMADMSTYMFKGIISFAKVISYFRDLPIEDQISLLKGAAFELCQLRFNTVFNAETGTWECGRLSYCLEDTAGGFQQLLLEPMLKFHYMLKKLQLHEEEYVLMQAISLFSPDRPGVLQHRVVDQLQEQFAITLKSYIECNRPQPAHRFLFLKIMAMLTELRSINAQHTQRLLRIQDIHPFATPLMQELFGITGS

In the case of `Cc1nc(C)c(C(=O)Nc2ccc(F)c(-c3nc4ncc(-c5ncccc5C)cn4n3)c2)o1` [compound 1, N-(4-Fluoro-3-(6-(3-methylpyridin-2-yl)-[1,2,4]triazolo[1,5-a]pyrimidin-2-yl)phenyl)-2,4-dimethyloxazole-5-carboxamide], the pEC50 [1] was 7.40, the “reduction of parasite burden in the liver” value (L. donovani) was 95% and the “therapeutic effect on skin lesions” value (L. major) was “comparable to that of liposomal amphotericin B”. For the same compound, the EC50/IC50 (hr Alpha2C; hr Alpha2C) was greater than 30 µM, the inhibition at 10 µM (hr Alpha2C; read-out: % inh/act @ 10 µM) was 13% and the inhibition at 30 µM (hr Alpha2C; read-out: % inh/act @ 30 µM) was 32%. It also gave an EC50/IC50 (hr CB1 antag; hr CB1 antag) greater than 30 µM, an inhibition at 10 µM (hr CB1 antag; read-out: % inh/act @ 10 µM) of -47% and an inhibition at 30 µM (hr CB1 antag; read-out: % inh/act @ 30 µM) of -57%. It also gave an EC50/IC50 (hr ETa; hr ETa) greater than 30 µM, an inhibition at 10 µM (hr ETa; read-out: % inh/act @ 10 µM) of 2% and an inhibition at 30 µM (hr ETa; read-out: % inh/act @ 30 µM) of 13%. It also gave an EC50/IC50 (hr GHS; hr GHS) greater than 30 µM, an inhibition at 10 µM (hr GHS; read-out: % inh/act @ 10 µM) of 12% and an inhibition at 30 µM (hr GHS; read-out: % inh/act @ 30 µM) of 12%. For the same compound, the EC50/IC50 (hr 5-HT1A antag; hr 5-HT1A antag) was greater than 30 µM, the inhibition at 10 µM (hr 5-HT1A antag; read-out: % inh/act @ 10 µM) was 19% and the inhibition at 30 µM (hr 5-HT1A antag; read-out: % inh/act @ 30 µM) was 42%. For the same compound, the EC50/IC50 (hr ERa antag; hr ERa antag) was greater than 30 µM, the inhibition at 10 µM (hr ERa antag; read-out: % inh/act @ 10 µM) was -8% and the inhibition at 30 µM (hr ERa antag; read-out: % inh/act @ 30 µM) was -4%. It also gave an EC50/IC50 (hr MC3; hr MC3) greater than 30 µM, an inhibition at 10 µM (hr MC3; read-out: % inh/act @ 10 µM) of 10% and an inhibition at 30 µM (hr MC3; read-out: % inh/act @ 30 µM) of 24%. The EC50/IC50 (hr Mot; hr Mot) was greater than 30 µM, the inhibition at 10 µM (hr Mot; read-out: % inh/act @ 10 µM) was -3% and the inhibition at 30 µM (hr Mot; read-out: % inh/act @ 30 µM) was 3%. For the same compound, the EC50/IC50 (hr ERBB2; hr ERBB2) was greater than 30 µM, the inhibition at 10 µM (hr ERBB2; read-out: % inh/act @ 10 µM) was 0% and the inhibition at 30 µM (hr ERBB2; read-out: % inh/act @ 30 µM) was 0%. The “DN AUC PO” value [2] was 7.5 µM·h, the “DN Cmax PO” value [2] was 800 nM and the “% inh/act @ 10 µM” value (hr GABAA antag) was -5%. The “% inh/act @ 30 µM” value (hr GABAA antag) was -4%, the bioavailability (in vivo [3]; po, 20 mg/kg) was 46% and the MRT (in vivo [3]; male, iv, 5 mg/kg) was 4.6 h. The Vd (in vivo [3]; male, iv, 5 mg/kg) was 0.63 L/kg, the clearance (in vivo [3]; male, iv, 5 mg/kg) was 2.3 mL/min/kg and the half-life (in vivo [3]; male, iv, 5 mg/kg) was 3.3 h. The bioavailability (in vivo [4]; Beagle, po, 1 mg/kg) was 44%, the MRT (in vivo [4]; beagle, iv, 0.3 mg/kg) was 3.3 h and the Vd (in vivo [4]; beagle, iv, 0.3 mg/kg) was 2.1 L/kg. It also gave a clearance (in vivo [4]; beagle, iv, 0.3 mg/kg) of 11.6 mL/min/kg, a half-life (in vivo [4]; beagle, iv, 0.3 mg/kg) of 3.8 h and an inhibition at 10 µM (Nav1.5) of 8%. The inhibition at 30 µM (Nav1.5) was 3%, the EC50/IC50 (hr Nav1.5) was greater than 50 µM and the EC50/IC50 (hr PXR antag) was greater than 30 µM.
